Measurements reported in PubChem BioAssay AID2060884 (Molecular Pharmacology Branch, DTP, NCI, 2025).
Blank lines part the entries; values can stand above or below the compound they belong to.

System: NCI-H929 complex spheroids, viability % test/control
Experiment: Anticancer human tumor NCI-H929 cell line growth inhibition [RAS];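 also: compound exposure lasted seven days before viability was read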;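 as to viability, T/C: 100% = DMSO vehicle control viability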
Conditions: for IC50: curve of first compound; for viability, T/C: stronger effect = lower value
How it was run: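 Multi-cell-type spheroids: tumor cells plus HUVEC endothelial cells and mesenchymal stem cells. RAS-pathway inhibitors were combined with targeted agents, each dosed in half-log steps down from clinical Cmax, or from 10 microM when Cmax was unknown.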

[1] = second compound 0.00316 µM, first compound 0.0316 µM
[2] = second compound 0.00316 µM, first compound 0.1 µM
[3] = second compound 0.00316 µM, first compound 0.316 µM
[4] = second compound 0.00316 µM, first compound 1 µM
[5] = second compound 0.00316 µM, first compound 3.16 µM
[6] = second compound 0.00316 µM, first compound 10 µM
[7] = second compound 0.01 µM, first compound 0.0316 µM
[8] = second compound 0.01 µM, first compound 0.1 µM
[9] = second compound 0.01 µM, first compound 0.316 µM
[10] = second compound 0.01 µM, first compound 1 µM
[11] = second compound 0.01 µM, first compound 3.16 µM
[12] = second compound 0.01 µM, first compound 10 µM
[13] = second compound 0.0316 µM, first compound 0.0316 µM
[14] = second compound 0.0316 µM, first compound 0.1 µM
[15] = second compound 0.0316 µM, first compound 0.316 µM
[16] = second compound 0.0316 µM, first compound 1 µM
[17] = second compound 0.0316 µM, first compound 3.16 µM
[18] = second compound 0.0316 µM, first compound 10 µM
[19] = second compound 0.1 µM, first compound 0.0316 µM
[20] = second compound 0.1 µM, first compound 0.1 µM
[21] = second compound 0.1 µM, first compound 0.316 µM
[22] = second compound 0.1 µM, first compound 1 µM
[23] = second compound 0.1 µM, first compound 3.16 µM
[24] = second compound 0.1 µM, first compound 10 µM
[25] = second compound 0.316 µM, first compound 0.0316 µM
[26] = second compound 0.316 µM, first compound 0.1 µM
[27] = second compound 0.316 µM, first compound 0.316 µM
[28] = second compound 0.316 µM, first compound 1 µM
[29] = second compound 0.316 µM, first compound 3.16 µM
[30] = second compound 0.316 µM, first compound 10 µM
[31] = second compound 1 µM, first compound 0.0316 µM
[32] = second compound 1 µM, first compound 0.1 µM
[33] = second compound 1 µM, first compound 0.316 µM
[34] = second compound 1 µM, first compound 1 µM
[35] = second compound 1 µM, first compound 3.16 µM
[36] = second compound 1 µM, first compound 10 µM

IC50 (second compound 0.00316 µM): > 10 µM
IC50 (second compound 0.01 µM): > 10 µM
IC50 (second compound 0.0316 µM): > 10 µM
IC50 (second compound 0.1 µM): > 10 µM
IC50 (second compound 0.316 µM): > 10 µM
IC50 (second compound 1 µM): > 10 µM
SMILES: NC1c2ccccc2OC12CCN(c1cnc3c(N4CCCc5ncccc54)n[nH]c3n1)CC2 (centres undefined) + C=CC(=O)N1CCN(c2nc(OCC3CCCN3C)nc3c(F)c(-c4nc(N)cc(C)c4C(F)(F)F)c(Cl)cc23)C(C)C1
viability, T/C [1]: 98.8%
viability, T/C [2]: 94.8%
viability, T/C [3]: 99.3%
viability, T/C [4]: 98.9%
viability, T/C [5]: 101%
viability, T/C [6]: 66.2%
viability, T/C [7]: 96.2%
viability, T/C [8]: 90.6%
viability, T/C [9]: 96%
viability, T/C [10]: 103%
viability, T/C [11]: 99%
viability, T/C [12]: 66.8%
viability, T/C [13]: 96.9%
viability, T/C [14]: 99.7%
viability, T/C [15]: 101%
viability, T/C [16]: 99.8%
viability, T/C [17]: 96.6%
viability, T/C [18]: 63.5%
viability, T/C [19]: 92.4%
viability, T/C [20]: 99%
viability, T/C [21]: 102%
viability, T/C [22]: 97.4%
viability, T/C [23]: 97.5%
viability, T/C [24]: 69.3%
viability, T/C [25]: 101%
viability, T/C [26]: 103%
viability, T/C [27]: 105%
viability, T/C [28]: 103%
viability, T/C [29]: 102%
viability, T/C [30]: 71.7%
viability, T/C [31]: 104%
viability, T/C [32]: 107%
viability, T/C [33]: 103%
viability, T/C [34]: 102%
viability, T/C [35]: 105%
viability, T/C [36]: 68.9%

IC50 (second compound 0.00316 µM): > 10 µM
IC50 (second compound 0.01 µM): > 10 µM
IC50 (second compound 0.0316 µM): > 10 µM
IC50 (second compound 0.1 µM): > 10 µM
IC50 (second compound 0.316 µM): > 10 µM
IC50 (second compound 1 µM): > 10 µM
SMILES: Cc1nc(N2CCC3(CC2)COC(C)C3N)c(CO)nc1Sc1ccnc(N)c1Cl (centres undefined) + C=CC(=O)N1CCN(c2nc(OCC3CCCN3C)nc3c(F)c(-c4nc(N)cc(C)c4C(F)(F)F)c(Cl)cc23)C(C)C1
viability, T/C [1]: 97.9%
viability, T/C [2]: 94.5%
viability, T/C [3]: 97.1%
viability, T/C [4]: 94.4%
viability, T/C [5]: 101%
viability, T/C [6]: 98.3%
viability, T/C [7]: 95.8%
viability, T/C [8]: 96%
viability, T/C [9]: 99.8%
viability, T/C [10]: 96.5%
viability, T/C [11]: 101%
viability, T/C [12]: 102%
viability, T/C [13]: 95.7%
viability, T/C [14]: 102%
viability, T/C [15]: 100%
viability, T/C [16]: 99.3%
viability, T/C [17]: 102%
viability, T/C [18]: 102%
viability, T/C [19]: 95.6%
viability, T/C [20]: 101%
viability, T/C [21]: 100%
viability, T/C [22]: 102%
viability, T/C [23]: 104%
viability, T/C [24]: 99.7%
viability, T/C [25]: 101%
viability, T/C [26]: 101%
viability, T/C [27]: 103%
viability, T/C [28]: 100%
viability, T/C [29]: 102%
viability, T/C [30]: 104%
viability, T/C [31]: 104%
viability, T/C [32]: 105%
viability, T/C [33]: 105%
viability, T/C [34]: 105%
viability, T/C [35]: 109%
viability, T/C [36]: 103%
